The record followed here is paper PMC12833730, “Discovery of a First‐in‐Class Covalent Allosteric SHP1 Inhibitor with Immunotherapeutic Activity” (Angewandte Chemie (International Ed. in English), 2025).

Broadly, the IC50 is the point on the concentration scale where inhibition reaches its midpoint. Higher therefore signals a need for much substance.

One assay concerns the target T1, FAP1 (Homo sapiens, UniProt Q12923).
T1 construct: FAP1, residues 2124-2485; made in house; host or cells: E. coli BL21(DE3)
Kind of assay: PTP panel IC50, 60-min preincubation. The assay is classed as biochemical. An excerpt: (§1) Building on the results from the SAR “by‐catalog” study, the following medicinal chemistry effort was prioritized on a systematic survey of the central phenyl scaffold, the sulfonamide linker, and the distal aryl moiety with the goal of a multiparameter optimization of potency and selectivity for SHP1 inhibition as well as drug‐like properties such as aqueous solubility and cell permeability. Additionally, given the crucial requirement for targeted covalent inhibitors to maintain tempered reactivity that enables selective target engagement and reduces cross‐reactivity to by‐standing nucleophiles in the cellular milieu,^[ [74], [75] ^] the medicinal chemistry campaign also sought to lower SHP1 covalent inhibitor reactivity with GSH and cytotoxicity. Careful assessment and evaluation of the SAR and other desirable drug‐like attributes of all synthesized molecules led to the identification of M029 (Figure 2a and Figure S2D, manuscript in preparation). […] To determine the selectivity of M029 for SHP1, we measured the IC50 value for M029‐mediated inhibition of a number of PTPs after a 60‐min preincubation. […] To assess potential direct interactions between SHP1 and M029, we utilized the thermal shift assay to measure the thermal stability of SHP1 in the presence of M029. […] To corroborate the covalent interaction between SHP1 and M029, a single SHP1‐M029 covalent adduct was observed by electrospray protein mass spectrometry when SHP1 was incubated with M029 (Figure 2e). […] This is in line with the expectation that SHP1 inactivation by M029 occurs through nucleophilic substitution of the chlorine from the chloroacetamide warhead.
(§2) To further confirm the time-dependent inhibition and determine the IC50 of acquired hits, repurchased compounds from Enamine were serially diluted in a 96-well plate, followed by the addition of proteins at 200 nM. After 10-minute and 60-minute preincubation, 2 µL of the mixture was transferred into 100 µM 6,8-Difluoro-4-Methylumbelliferyl Phosphate (DiFMUP, Invitrogen, cat# D6567) at a final volume of 200 µL. The reaction was allowed to proceed for 5 minutes and quenched by the addition of 40 µl of a 160 µM solution of bpV(Phen) (Sigma-Aldrich, cat# SML0889). The fluorescence signal was measured using a CLARIOstar Plus Microplate Spectrophotometer (BMG Labtech) using excitation and emission wavelengths of 340 nm and 450 nm, respectively. Data were fitted using Prism GraphPad 10.1.1.

The target of the next assay is PEZ (Homo sapiens, UniProt Q15678). Kind of assay: PTP panel IC50, 60-min preincubation. The assay is classed as biochemical.
Excerpt: as §1, §2

The target of another assay is Ssu72 (Homo sapiens, UniProt Q9NP77). Description: PTP panel IC50, 60-min preincubation. Format: biochemical.
Excerpt: as §1, §2

In another assay the target is T2, CD45 (Homo sapiens, UniProt P08575).
T2 construct: CD45, residues 620-1236; made in house; host or cells: E. coli BL21(DE3)
Description: PTP panel IC50, 60-min preincubation. The assay is classed as biochemical.
Excerpt: as §1, §2

In a further assay the target is T3, MKP5 (Homo sapiens, UniProt Q9Y6W6).
T3 construct: MKP5, residues 320-647; made in house; host or cells: E. coli BL21(DE3)
Kind of assay: PTP panel IC50, 60-min preincubation. Format: biochemical.
Excerpt: as §1, §2

The target in a further assay is T4, CDC14A (Homo sapiens, UniProt Q9UNH5).
T4 construct: CDC14A, residues 1-413; made in house; host or cells: E. coli BL21(DE3)
Kind of assay: PTP panel IC50, 60-min preincubation. Format: biochemical.
Excerpt: as §1, §2

The next assay has as its target T5, PEST (Homo sapiens, UniProt Q05209).
T5 construct: PTP-PEST, residues 5-304; made in house; host or cells: E. coli BL21(DE3)
Description: PTP panel IC50, 60-min preincubation. Format: biochemical.
Excerpt: as §1, §2

In another assay the target is T6, HePTP (Homo sapiens, UniProt P35236).
T6 construct: HePTP, residues 22-360; made in house; host or cells: E. coli BL21(DE3)
Description: PTP panel IC50, 60-min preincubation. Format: biochemical.
Excerpt: as §1, §2

The target in another assay is PP5 (Homo sapiens, UniProt P53041). Description: PTP panel IC50, 60-min preincubation. The assay is classed as biochemical.
Excerpt: as §1, §2

The next assay deals with VHR (Homo sapiens, UniProt P51452). Description: PTP panel IC50, 60-min preincubation. The assay is classed as biochemical.
Excerpt: as §1, §2

The target in another assay is T7, TCPTP (Homo sapiens, UniProt P17706).
T7 construct: TC-PTP, residues 1-387; made in house; host or cells: E. coli BL21(DE3)
Kind of assay: PTP panel IC50, 60-min preincubation. The assay is classed as biochemical.
Excerpt: as §1, §2

The next assay addresses T8, STEP (Homo sapiens, UniProt P54829).
T8 construct: STEP, residues 258-539; made in house; host or cells: E. coli BL21(DE3)
Description: PTP panel IC50, 60-min preincubation. The assay is classed as biochemical.
Excerpt: as §1, §2

In the next assay the target is T9, LMPTP (Homo sapiens, UniProt P24666).
T9 construct: LMWPTP, residues 1-158; made in house; host or cells: E. coli BL21(DE3)
Description: PTP panel IC50, 60-min preincubation. Format: biochemical.
Excerpt: as §1, §2

The subject of a further assay is MC38 tumors. Kind of assay: MC38 tumors in nude mice. The assay is classed as in vivo. Conditions: 25 mg/kg. The source says: To further establish whether the inhibitory effects of M029 on tumor progression could be attributable to enhanced antitumor immune responses, we treated MC38 tumors in nude mice. […] To evaluate the importance of CD8^+ T and NK cells in M029‐induced antitumor activity, we induced CD8^+ T cell or NK cell depletion in the MC38 syngeneic model using anti‐CD8 or anti‐NK1.1 antibodies as described in Figure 6c. […] These findings are consistent with the known role of SHP1 in T cells and with our in vitro data that indicate M029 enhances T cell activation with no direct effect on tumor cells. […] These findings align with previous reports that activated CD8^+ T cells recruit NK cells to tumors through releasing cytokines and chemokines like IFN‐γ.^[ [92] ^] The observed changes in immune activity induced by M029, such as increased tumor infiltration of cytotoxic CD8^+ T cells, enhanced T cell cytotoxicity and effector function, as well as improved NK cell infiltration and activation, collectively contribute to the anticancer effects exerted by M029 treatment.
Figure 6 Cytotoxic T‐cell activity is necessary for M029 antitumor activity. […] C57BL/6 mice were injected with anti‐CD8 or anti‐NK1.1 antibodies every 3–4 days for 8 days after tumor inoculation. […]

Entries after “also recorded” stand apart in the source; their conditions may differ.

T8 sequence (P54829 282-563, species assumed): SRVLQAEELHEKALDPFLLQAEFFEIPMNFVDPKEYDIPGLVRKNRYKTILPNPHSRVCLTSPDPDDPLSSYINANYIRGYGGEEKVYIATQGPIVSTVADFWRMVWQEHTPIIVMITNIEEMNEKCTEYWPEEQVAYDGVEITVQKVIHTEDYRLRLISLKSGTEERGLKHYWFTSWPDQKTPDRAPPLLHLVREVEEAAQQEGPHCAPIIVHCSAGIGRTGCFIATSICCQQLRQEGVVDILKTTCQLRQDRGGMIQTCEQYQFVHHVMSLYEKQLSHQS
Sequence of PP5 (P53041 whole entry): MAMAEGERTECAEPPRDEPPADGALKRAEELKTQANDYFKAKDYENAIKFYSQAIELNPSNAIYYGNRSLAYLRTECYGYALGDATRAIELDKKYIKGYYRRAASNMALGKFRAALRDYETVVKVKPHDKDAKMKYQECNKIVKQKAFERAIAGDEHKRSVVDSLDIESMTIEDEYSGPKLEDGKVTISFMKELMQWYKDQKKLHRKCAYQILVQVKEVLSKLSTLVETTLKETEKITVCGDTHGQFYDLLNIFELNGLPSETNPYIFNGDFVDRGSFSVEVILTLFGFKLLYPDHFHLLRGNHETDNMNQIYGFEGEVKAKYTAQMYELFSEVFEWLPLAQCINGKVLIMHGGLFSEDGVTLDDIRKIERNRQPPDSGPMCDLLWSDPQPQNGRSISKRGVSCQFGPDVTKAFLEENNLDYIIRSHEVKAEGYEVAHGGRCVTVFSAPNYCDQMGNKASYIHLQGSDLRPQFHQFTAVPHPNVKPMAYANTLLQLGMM
T1 sequence (Q12923 2124-2485): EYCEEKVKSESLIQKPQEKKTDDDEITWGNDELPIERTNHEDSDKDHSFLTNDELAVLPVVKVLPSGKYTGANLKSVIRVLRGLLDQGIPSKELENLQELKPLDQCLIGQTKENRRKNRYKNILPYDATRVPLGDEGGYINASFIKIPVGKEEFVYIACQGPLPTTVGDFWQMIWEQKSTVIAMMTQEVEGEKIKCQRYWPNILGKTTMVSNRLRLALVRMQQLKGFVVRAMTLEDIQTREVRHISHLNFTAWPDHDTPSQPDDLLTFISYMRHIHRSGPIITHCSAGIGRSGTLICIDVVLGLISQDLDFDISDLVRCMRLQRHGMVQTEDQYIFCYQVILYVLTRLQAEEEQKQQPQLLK
T4 sequence (Q9UNH5 1-413, species assumed): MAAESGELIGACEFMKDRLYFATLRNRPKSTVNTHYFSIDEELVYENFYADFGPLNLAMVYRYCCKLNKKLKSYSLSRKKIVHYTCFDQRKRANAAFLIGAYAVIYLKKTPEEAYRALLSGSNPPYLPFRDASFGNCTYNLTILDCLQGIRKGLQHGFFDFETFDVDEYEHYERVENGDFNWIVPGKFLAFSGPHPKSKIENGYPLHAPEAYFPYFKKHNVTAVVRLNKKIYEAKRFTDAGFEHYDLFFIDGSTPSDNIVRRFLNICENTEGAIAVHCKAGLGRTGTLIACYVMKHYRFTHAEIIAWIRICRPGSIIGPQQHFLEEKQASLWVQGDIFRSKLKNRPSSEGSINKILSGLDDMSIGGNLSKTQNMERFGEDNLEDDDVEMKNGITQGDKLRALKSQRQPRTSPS
T2 sequence (P08575 620-1236, species assumed): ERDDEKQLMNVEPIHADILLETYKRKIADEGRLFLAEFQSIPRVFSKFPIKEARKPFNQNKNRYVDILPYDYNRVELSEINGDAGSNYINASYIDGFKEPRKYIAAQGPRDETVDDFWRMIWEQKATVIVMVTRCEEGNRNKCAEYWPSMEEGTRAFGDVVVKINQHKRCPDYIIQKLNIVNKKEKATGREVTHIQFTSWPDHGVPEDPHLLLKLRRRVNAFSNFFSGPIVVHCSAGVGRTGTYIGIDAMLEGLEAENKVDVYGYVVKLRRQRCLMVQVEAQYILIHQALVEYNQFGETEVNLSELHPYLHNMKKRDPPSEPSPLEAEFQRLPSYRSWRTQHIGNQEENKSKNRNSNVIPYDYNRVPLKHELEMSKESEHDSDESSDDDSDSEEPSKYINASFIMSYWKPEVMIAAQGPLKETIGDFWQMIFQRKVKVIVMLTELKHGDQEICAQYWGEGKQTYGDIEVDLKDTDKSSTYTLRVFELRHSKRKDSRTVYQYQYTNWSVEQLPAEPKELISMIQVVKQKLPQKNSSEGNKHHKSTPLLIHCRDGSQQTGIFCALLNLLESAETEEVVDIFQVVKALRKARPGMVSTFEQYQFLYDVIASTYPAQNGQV
T9 sequence (P24666 whole entry, the tested form may be a part): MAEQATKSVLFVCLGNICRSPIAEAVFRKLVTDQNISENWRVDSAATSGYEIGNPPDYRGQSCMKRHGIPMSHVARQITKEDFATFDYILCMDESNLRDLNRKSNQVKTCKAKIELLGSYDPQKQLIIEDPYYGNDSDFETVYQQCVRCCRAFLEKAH
T7 sequence (P17706 1-387 isoform P17706-2): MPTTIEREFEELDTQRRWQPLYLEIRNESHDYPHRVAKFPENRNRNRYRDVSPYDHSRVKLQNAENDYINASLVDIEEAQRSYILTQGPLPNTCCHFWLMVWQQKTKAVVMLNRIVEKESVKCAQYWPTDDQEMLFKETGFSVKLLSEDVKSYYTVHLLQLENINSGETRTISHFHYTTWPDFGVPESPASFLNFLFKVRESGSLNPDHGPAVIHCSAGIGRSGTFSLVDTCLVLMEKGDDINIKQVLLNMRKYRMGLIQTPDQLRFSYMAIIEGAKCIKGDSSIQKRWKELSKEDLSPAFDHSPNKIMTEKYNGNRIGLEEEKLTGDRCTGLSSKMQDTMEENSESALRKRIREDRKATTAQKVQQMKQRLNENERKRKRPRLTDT
T5 sequence (Q05209 5-304): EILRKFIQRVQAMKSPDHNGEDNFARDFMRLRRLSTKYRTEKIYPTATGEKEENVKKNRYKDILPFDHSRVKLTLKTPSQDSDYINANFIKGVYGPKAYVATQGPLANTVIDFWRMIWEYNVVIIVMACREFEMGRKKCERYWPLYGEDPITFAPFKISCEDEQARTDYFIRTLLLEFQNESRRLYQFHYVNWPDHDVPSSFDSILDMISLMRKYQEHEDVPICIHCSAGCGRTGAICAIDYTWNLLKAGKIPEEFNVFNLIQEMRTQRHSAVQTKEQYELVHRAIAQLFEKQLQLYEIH
Sequence of Ssu72 (Q9NP77 whole entry, species assumed): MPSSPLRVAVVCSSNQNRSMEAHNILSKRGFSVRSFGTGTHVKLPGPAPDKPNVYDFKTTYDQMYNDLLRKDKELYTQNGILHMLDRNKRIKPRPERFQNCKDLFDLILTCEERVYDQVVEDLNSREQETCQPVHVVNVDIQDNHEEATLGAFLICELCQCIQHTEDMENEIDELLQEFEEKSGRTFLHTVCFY
T3 sequence (Q9Y6W6 320-467 limits assumed, species assumed): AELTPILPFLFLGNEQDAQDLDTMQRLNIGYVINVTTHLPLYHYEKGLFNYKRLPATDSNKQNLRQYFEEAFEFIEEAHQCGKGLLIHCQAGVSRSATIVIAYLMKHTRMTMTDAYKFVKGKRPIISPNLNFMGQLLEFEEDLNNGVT
Sequence of VHR (P51452 whole entry, species assumed): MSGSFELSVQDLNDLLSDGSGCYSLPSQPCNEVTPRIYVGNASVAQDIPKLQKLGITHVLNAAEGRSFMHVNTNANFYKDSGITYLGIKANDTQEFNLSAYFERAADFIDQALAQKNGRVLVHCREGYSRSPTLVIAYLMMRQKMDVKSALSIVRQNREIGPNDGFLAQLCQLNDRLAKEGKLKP
T6 sequence (P35236 22-360): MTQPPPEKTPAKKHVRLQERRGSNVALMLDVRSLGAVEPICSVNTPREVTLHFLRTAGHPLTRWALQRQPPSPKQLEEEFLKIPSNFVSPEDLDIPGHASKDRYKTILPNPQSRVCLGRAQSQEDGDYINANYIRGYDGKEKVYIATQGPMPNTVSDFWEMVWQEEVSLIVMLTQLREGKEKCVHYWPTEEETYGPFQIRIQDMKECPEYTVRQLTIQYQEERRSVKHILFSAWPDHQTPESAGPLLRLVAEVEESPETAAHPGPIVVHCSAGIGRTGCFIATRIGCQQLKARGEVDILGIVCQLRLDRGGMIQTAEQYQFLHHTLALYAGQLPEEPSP

Take `N#Cc1ccsc1NS(=O)(=O)c1ccc(NC(=O)CCl)cc1` [M029, 2-Chloro-N-(4-(N-(3-cyanothiophen-2-yl)sulfamoyl)phenyl)acetamide]: the IC50 against FAP1 was greater than 200 µM; against PEZ, 172 ± 19.3 µM; against Ssu72 it was greater than 200 µM; at CD45, 139 ± 38.5 µM; against MKP5, 165 ± 20.1 µM; against CDC14A, greater than 200 µM. For the same molecule, the IC50 was greater than 200 µM on PEST; greater than 200 µM against HePTP; greater than 200 µM against PP5; 180 ± 46.8 µM against VHR; 150 ± 31.1 µM on TCPTP; greater than 200 µM against STEP. Also, the IC50 against LMPTP was greater than 200 µM. Besides, the “MC38 tumor growth in nude mice” value in the assay with MC38 tumors is recorded as “ineffective in inhibiting tumor growth; also recorded: no significant”.
